The text below walks through data of patent US12673106B2, “Modulators of nuclear receptor subfamily 4 group A member 1 (NR4A1) and uses thereof” (University of Florida Research Foundation, Incorporated, priority 2020, dated 2026).

In data set [1] the target is T1, NR4A1 (Homo sapiens, UniProt P22736). Details: degrade endogenous NR4A1 in T47D breast cancer cells; endogenous in cells; host or cells: T47D breast cancer cells. As to conditions: NR4A1 ligand used as warhead; cited from earlier work.
The target of data set [2] is T1, NR4A1. Description: E3 ligase-mediated NR4A1 degradation in transfected HEK293T cells (immunoblotting). The format is cell-based. As to conditions: HEK293T transfected with NR4A1, with or without CRBN or VHL; 3 μM, 6 hrs. The procedure: FIG. 4A. Efficiency of NR4A1-Ps in protein degradation using 3 examples of NR4A1-Ps based on CRBN (NR-C91, 92, 93) and 4 based on VHL (NR-V03, 04, 07, 50), with NR-V04 showing the best efficacy in NR4A1 degradation. FIG. 4B. NR4A1 degradation is mediated by targeted E3 ligases. HEK293T cells were transfected with NR4A1, with or without overexpression of CRBN or VHL. 36 hrs after transfection, cells were treated with 3 μM of NR-C91 or NR-V04 for 6 hrs for immunoblotting.
Developing NR4A1-Ps. Due to the diverse function of NR4A1 in different cancer types, both agonistic and antagonistic ligands of NR4A1 are of interest in development (25). […] 4 cytosporone-B-based and 10 celastrol-based NR4A1-Ps using polyethylene glycol (PEG) linkers of various length have already been synthesized (FIG. 3 showing several examples).

The target in data set [3] is T1, NR4A1. Description: Degradation of endogenous NR4A1 in T47D breast cancer cells. As to conditions: 1 μM. Details: degrade endogenous NR4A1 in T47D breast cancer cells; endogenous in cells; host or cells: T47D breast cancer cells. It counts as cell-based.
The nature of data set [4]: Toxicity and body weight in tumor-bearing mice (FIG. 11). As to conditions: 0.75 mg/kg celastrol twice weekly for 3 weeks. The format is in vivo. As to the method: Body weight was recorded weekly.

T1 sequence (P22736 whole entry, species assumed): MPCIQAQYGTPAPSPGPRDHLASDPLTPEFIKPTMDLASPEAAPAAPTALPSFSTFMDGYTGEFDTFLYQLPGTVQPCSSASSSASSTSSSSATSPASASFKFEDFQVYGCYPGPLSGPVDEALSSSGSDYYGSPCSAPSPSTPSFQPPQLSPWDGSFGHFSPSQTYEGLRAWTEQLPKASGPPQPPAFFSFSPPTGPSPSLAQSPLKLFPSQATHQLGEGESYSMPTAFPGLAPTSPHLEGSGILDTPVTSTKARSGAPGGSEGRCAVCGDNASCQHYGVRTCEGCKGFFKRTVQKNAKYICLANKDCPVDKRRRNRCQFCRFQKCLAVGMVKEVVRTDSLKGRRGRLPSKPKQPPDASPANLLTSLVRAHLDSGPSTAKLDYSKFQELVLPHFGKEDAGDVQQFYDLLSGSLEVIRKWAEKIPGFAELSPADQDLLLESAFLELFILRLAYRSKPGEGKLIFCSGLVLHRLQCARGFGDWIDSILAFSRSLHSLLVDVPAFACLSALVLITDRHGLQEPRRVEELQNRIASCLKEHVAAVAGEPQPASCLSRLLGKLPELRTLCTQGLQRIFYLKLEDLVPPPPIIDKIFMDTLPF

For `CCCCCCCC(=O)c1c(O)cc(O)cc1CC(=O)OCC` [cytosporone-B], the dissociation constant Kd at NR4A1 [1] is 1.68 µM.
Turning to `CC1=C(O)C(=O)C=C2C1=CC=C1[C@@]2(C)CC[C@@]2(C)[C@@H]3C[C@](C)(C(=O)NCCOCCNc4cccc5c4C(=O)N(C4CCC(=O)NC4=O)C5=O)CC[C@]3(C)CC[C@]12C` (stereo partly shown) [NR-C91], the “NR4A1 degradation with overexpression of the corresponding E3 ligase” value on NR4A1 [2] was “overexpression of their corresponding E3 ligases facilitated NR4A1-P-mediated degradation of NR4A1”. The NR4A1 degradation result on NR4A1 [3] is recorded as “led to the degradation of NR4A1, but not as efficiently as NR-V04”.
In the case of `CC1=C(O)C(=O)C=C2C1=CC=C1[C@@]2(C)CC[C@@]2(C)[C@@H]3C[C@](C)(C(=O)O)CC[C@]3(C)CC[C@]12C` [celastrol], in data set [4], the body weight result is “significant body weight change”.
